{"source": "patent US6355619B1", "about": "“Peptide tumor cell growth inhibitors” (Board of Regents, The University of Texas System, priority 1996, dated 2002)", "key": {"[1]": {"target": "T1, MIP2β binding to human neutrophils (Homo sapiens, UniProt P25025)", "T1 construct": "endogenous in cells; host or cells: human neutrophils", "assay": "Binding of radioiodinated MIP2β to human neutrophils", "conditions": "1 nM MIP2β", "experimental": "FIG. 10. Ac-RRWWCX (SEQ ID NO:23) Inhibits Binding of GRO and MIP2β to human neutrophils. Radioiodinated MIP2β and GRO/MGSA were mixed with various concentration of Ac-RRWWCR-NH2 and incubated at room temperature for 15 min. Neutrophil suspension (1×10^6 cells in 160 μl PBS containing 0.1% BSA) was added to 40 μl of the mixture and incubated for 90 min on ice. The radioactivity bound to the cells was separated from free radioactivity by centrifugation through an oil layer. The % binding inhibition was calculated as follows: [formula]\nMIP2β and GRO/MGSA were radioiodinated using Bolten Hunter reagent. The radioiodinated components were mixed with various concentration of the Ac-RRWWCX-NH2 (SEQ ID NO:23) peptide and incubated at room temperature for 15 min. Neutrophil suspension (1×10^6 cells in 160 μl PBS containing 0.1% BSA) was added to 40 μl of the mixture and incubated for 90 min on ice. The radioactivity bound to the cells was separated from free radioactivity by centrifugation through an oil layer. The bound radioactivity is an indication of bound CXC intercrine peptide. The % binding inhibition in the presence of Ac-RRWWCX-NH2 (SEQ ID NO:23) was calculated as follows: [formula]\nwhere B is bound radioactivity in the presence of the peptide, T is bound radioactivity in the absence of the peptide, and NSP is bound radioactivity in the presence of excess nonlabeled ligand."}, "[2]": {"tested_on": "IL-8-stimulated neutrophil enzyme release", "assay": "β-glucuronidase release from neutrophils stimulated by IL-8", "type": "cell-based, human", "experimental": "(§1) FIG. 8. The Effect of Ac-RRWWCR-NH2 (SEQ ID NO:1) on β-glucuronidase Release. Neutrophils pretreated with cytochalasin B were incubated with 100 nM IL-8 (●), 100 nM fMLP (▪), 100 nM C5a (_) or 100 nM leukotriene B4 ? or without any stimulant (◯) in the presence of increasing concentration of Ac-RRWWCR-NH2 (SEQ ID NO:1) for 30 min at 37° C. β-glucuronidase activity of supernatants were measured using phenolphthalein-glucuronic acid as substrate. Analysis of variance was used for multiple comparison.\n(§2) Neutrophil enzyme release was studied by a modification of the method of Goldstein and colleagues (Goldstein et al., 1973). Cytochalasin B (Sigma Chemical Co.) was stored in dimethyl sulfoxide at a concentration of 5 mg/ml and was diluted to a concentration of 50 μg/ml in Hank's Balanced Salt Solution (HBSS) immediately before use. Cytochalasin B, 200 μl, was added to 1 ml of suspension of neutrophils, 6.25×10^6 cells/ml in HBSS, to achieve a final cytochalasin B concentration of […]. The solution was then incubated in 96 well plates at room temperature for 10 min. The stimulant, 100 μl, was added, and this cell suspension was incubated for 30 min at 37° C. The plates were centrifuged and 100 μl of supernatant was removed. […] After 16 hr incubation at 37° C., 200 μl of 0.2 M Glycine in 0.2 M NaCl, pH10.4 was added to each well and OD540 was measured as the enzyme activity."}, "[3]": {"tested_on": "C5a-stimulated neutrophil enzyme release", "assay": "β-glucuronidase release from neutrophils stimulated by C5a", "type": "cell-based, human", "conditions": "100 nM C5a", "experimental": "as §1, §2"}, "[4]": {"tested_on": "leukotriene B4-stimulated neutrophil enzyme release", "assay": "β-glucuronidase release from neutrophils stimulated by leukotriene B4", "type": "cell-based, human", "conditions": "100 nM leukotriene B4", "experimental": "as §1, §2"}, "neutrophils [5]": {"tested_on": "neutrophils", "assay": "β-glucuronidase release from neutrophils without stimulant", "type": "cell-based, human", "conditions": "without any stimulant", "experimental": "as §1, §2"}, "[6]": {"tested_on": "NCI-H292 (squamous cell carcinoma of lung)", "assay": "Growth of NCI-H292, cell count", "type": "cell-based", "conditions": "NCI-H292, 7 days, media replaced every 24 hour", "experimental": "FIG. 19. The effect of Antileukinate on growth of NCI-H292 (squamous cell carcinoma of lung). NCI-H292 cells were plated at a density of 5×10^3 cells in 24-well plate with growth medium. After the cells adhered to the plate, supernatants were aspirated and culture media containing various concentrations of Antileukinate were added to the wells. The media was replaced every 24 hour and the cells were cultured for 7 days. After incubation, cells were detatched with trypsin-EDTA and the cell number was counted using a hemocytometer. Cell number was decreased in a dose-dependent manner and there are significant differences from control at concentrations greater than, or equal to 50 μM of Antileukinate (p<0.05)."}, "A375P melanoma cells": {"tested_on": "A375P melanoma cells", "assay": "Tumor cell growth, A375P", "type": "cell-based"}, "WM115 melanoma cells": {"tested_on": "WM115 melanoma cells", "assay": "Tumor cell growth, WM115", "type": "cell-based"}, "[7]": {"tested_on": "lung adenocarcinoma cell line KS-LU-1", "assay": "Tumor cell growth, KS-LU-1", "type": "cell-based"}, "[8]": {"tested_on": "adenocarcinoma from breast tissue MCF-7", "assay": "Tumor cell growth, MCF-7", "type": "cell-based"}, "human neutrophils": {"tested_on": "human neutrophils", "assay": "Binding of the peptide to human neutrophils"}, "IL-8": {"target": "IL-8 (Homo sapiens, UniProt P10145)", "sequence (P10145 28-99)": "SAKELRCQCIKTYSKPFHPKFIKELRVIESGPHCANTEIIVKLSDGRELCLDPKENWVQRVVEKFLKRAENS", "assay": "Interaction of the peptide with IL-8", "type": "binding"}, "neutrophils [9]": {"tested_on": "neutrophils", "protocol": "Cytotoxicity Test. […] (●) or in RPMI-1640 media containing 1% BSA for 30 min at 37° C. (◯).\nThis was achieved by measuring the amount of ^51Cr released from neutrophils, as follows: The neutrophil preparation (2×10^7/ml) in RPMI-1640 media containing 10% donor's plasma was incubated with 500 μCi of Na2^51CrO4 (Du Pont Co.) for 60 min at 37° C. The cells were washed 3 times, resuspended in the media at the concentration of 1×10^7/ml, and then incubated for 30 min at 37° C. to allow spontaneous lysis of marginally viable cells. […] The buffer and the conditions of incubation simulated either the binding assay or the chemotactic assay. After the incubation, the tubes were centrifuged at 300×g for 7 min at 4° C. and the radioactivity in the supernatant was then counted in a gamma radiation spectrometer. Triplicate tubes containing buffer alone or 2% SDS were used to determine spontaneous and maximum release, respectively. The percentage lysis was calculated by using the following formula: [formula]"}, "RPMI-7951": {"tested_on": "RPMI-7951", "conditions": "16 hr", "protocol": "The cell lines (4×10^5 cells/well) in RPMI-1640 medium containing 10% fetal bovine serum were incubated with 10 μCi of Na2^51CrO4 (DuPont NEN Co.) for 60 min at 37° C. in a 24 well tissue culture plate. The cells were washed 3 times and then incubated in cell culture medium for 30 min at 37° C. to allow spontaneous lysis of marginally viable cells. […] The cells were cultured for 16 hr at 37° C. and then the radioactivity in the supernatants was counted in a gamma radiation spectrometer. Quadriplicate wells received cell culture medium alone or 2% SDS to determine spontaneous and maximum release, respectively. The percentage lysis was calculated by using the following formula: [formula]"}}, "note": "Where two headings read alike, the source gives them in different places."}
{"substance": "RRWWCR [Ac-RRWWCR-NH2]", "values": [{"measurement": "effect on binding of MIP2β to neutrophils", "setting": "[1]; listed as Ac-RRWWCX-NH2", "result": "effectively suppress the binding"}, {"measurement": "effect on binding of MIP2β to neutrophils", "setting": "[1]; listed as Antileukinate", "result": "suppressed the binding"}, {"measurement": "EC50", "setting": "[2]; read-out: EC50, inhibition of enzyme release from neutrophils stimulated by IL-8", "result": 800, "unit": "nM"}, {"measurement": "peptide concentration inhibiting β-glucuronidase release", "setting": "[2]; stimulated by 100 nM IL-8", "result": 2, "unit": "µM"}, {"measurement": "effect on enzyme release stimulated by C5a", "setting": "[3]", "result": "did not affect the enzyme release"}, {"measurement": "effect on enzyme release stimulated by leukotriene B4", "setting": "[4]", "result": "did not affect the enzyme release"}, {"measurement": "stimulation of β-glucuronidase release by the peptide itself", "setting": "neutrophils [5]", "result": "did not stimulate β-glucuronidase release"}, {"measurement": "concentrations with significant difference in cell number from control (p<0.05)", "setting": "[6]", "result": "≥ 50", "unit": "µM"}, {"measurement": "effect on cell growth", "setting": "A375P melanoma cells", "result": "suppresses the growth"}, {"measurement": "effect on cell growth", "setting": "WM115 melanoma cells", "result": "suppresses the growth"}, {"measurement": "effect on cell growth", "setting": "[7]", "result": "inhibits growth"}, {"measurement": "effect on cell growth", "setting": "[8]", "result": "inhibits growth"}, {"measurement": "binding of the peptide to human neutrophils", "setting": "human neutrophils", "result": "binds to human neutrophils"}, {"measurement": "interaction of the peptide with IL-8", "setting": "IL-8", "result": "does not interact with IL-8"}, {"measurement": "cell lysis under conditions used in chemotaxis", "setting": "neutrophils [9]; 100 μM peptide, RPMI-1640 1% BSA, 30 min at 37° C.", "result": "had no effect"}, {"measurement": "cells damaged under conditions used in chemotaxis", "setting": "neutrophils [9]; 500 μM peptide, RPMI-1640 1% BSA, 30 min at 37° C.", "result": "~25", "unit": "%"}, {"measurement": "percentage of cells lysed", "setting": "neutrophils [9]; PBS containing 0.1% BSA, 90 min at 4° C., up to 500 μM peptide", "result": "remained near control level"}, {"measurement": "% cell lysis", "setting": "RPMI-7951; RPMI-7951, 1 μM peptide", "result": "−0.8 ± 2.2", "unit": "%"}, {"measurement": "% cell lysis", "setting": "RPMI-7951; RPMI-7951, 5 μM peptide", "result": "−2.6 ± 3.7", "unit": "%"}, {"measurement": "% cell lysis", "setting": "RPMI-7951; RPMI-7951, 20 μM peptide", "result": "−3.4 ± 6.3", "unit": "%"}, {"measurement": "% cell lysis", "setting": "RPMI-7951; RPMI-7951, 100 μM peptide", "result": "6.8 ± 11.1", "unit": "%"}]}
